Results as given in patent US4808605A, “Tetrahydronaphthalene derivatives as calcium antagonists” (Hoffmann-La Roche Inc., priority 1986, dated 1989).

Columns and labels:
narcotized dog = assay: Haemodynamic parameters in the narcotized dog (Test C); type: in vivo; conditions: % maximum variation from initial value; for BP Δ %: blood pressure; for CBF Δ %: coronary blood flow; for HR Δ %: heart rate; for dp/dt Δ %: rate of increase in left ventricular pressure
Description: C. […] The values are given as the % maximum variation from the initial value (Δ %) and the duration of this variation (t) per dosage administered. There is thus obtained not only an overall picture of the activity of the substance, but also an estimation as to the potential selectivity for a specific part of the circulatory system in the entire organism. After the administration of an anaesthetic, the dog is intubated and respired artificially. Blood pH, pC2 O , pO2 and haemoglobin are measured hourly with a blood-gas analyser. The blood pressure (systolic and diastolic) is measured with a probe in the aorta abdominalis. The heart freguency is recorded by means of a tachometer, which is disengaged from the pressure pulse. For the other measurements the heart must be firstly be opened in order that a probe can be inserted in the left ventricle (heart chamber) for the pressure measurements (dp/dt). The coronary blood flow is measured with a flowing probe in the left coronary artery (descendens).

[1] = tested on: Isolated, perfused guinea pig heart; assay: Isolated, perfused guinea pig heart according to Langendorff (Test B); conditions: Cavia porcellus, infusion, 10^-10 to 10^-6 M, pH 7.3, 37° C., read-out: CBF IC50
Description: B. Isolated, perfused guinea pig heart according to Langendorff: Guinea pigs weighing approximately 400 g are narcotized with Urethan (1 g/kg i.p.) and the heart is removed rapidly. […] A Miller microtip catheter pressure transducer (PC-350) is inserted in the left heart chamber in order to measure the left ventricular pressure. The total coronary artery flow is collected in a funnel and measured with an electro magnetic flow meter. All measurement parameters are recorded on a recording apparatus (Gould, Model 2800). The test begins after an adaptation of 45 minutes. Substances are infused with a velocity of 1% of the total coronary flow rate. A complete concentration-activity curve (10^-10 to 10^-6 M) is prepared for each substance.

[2] = target: T1, ^3 H-desmethoxyverapamil binding, partially-cleaned membranes of guinea pig heart (Cavia porcellus, UniProt O35505); assay: ^3 H-Desmethoxyverapamil binding determinations (Test A); conditions: half-maximum inhibition of specific ^3 H-desmethoxyverapamil binding; 2.5 nM; 120 minutes at 37° C.
T1 construct: partially-cleaned membranes of guinea pig heart; from tissue; host or cells: guinea pig heart, partially-cleaned membranes
Description: A. ^3 H-Desmethoxyverapamil binding determinations:
The determination is carried out on partially-cleaned membranes of guinea pig heart. […] The incubation lasts 120 minutes at 37° C. and is stopped by dilution with the incubation buffer; a filtration is subsequently carried out. The filter-bound radioactivity is measured with a scintillation counter. Specific binding (i.e. receptor-bound) is defined as the difference between total and unspecific-bound radioactivity. The unspecific binding is determined in the presence of an excess of non-radioactive verapamil (10 μM).
The activity (potency) of a compound in this test is defined by the IC50 value. The IC50 is the substance concentration (in mol/l) which produces a half-maximum inhibition of the specific ^3 H-desmethoxyverapamil binding. This value is extrapolated from a concentration-binding curve.

T1 sequence (O35505 whole entry): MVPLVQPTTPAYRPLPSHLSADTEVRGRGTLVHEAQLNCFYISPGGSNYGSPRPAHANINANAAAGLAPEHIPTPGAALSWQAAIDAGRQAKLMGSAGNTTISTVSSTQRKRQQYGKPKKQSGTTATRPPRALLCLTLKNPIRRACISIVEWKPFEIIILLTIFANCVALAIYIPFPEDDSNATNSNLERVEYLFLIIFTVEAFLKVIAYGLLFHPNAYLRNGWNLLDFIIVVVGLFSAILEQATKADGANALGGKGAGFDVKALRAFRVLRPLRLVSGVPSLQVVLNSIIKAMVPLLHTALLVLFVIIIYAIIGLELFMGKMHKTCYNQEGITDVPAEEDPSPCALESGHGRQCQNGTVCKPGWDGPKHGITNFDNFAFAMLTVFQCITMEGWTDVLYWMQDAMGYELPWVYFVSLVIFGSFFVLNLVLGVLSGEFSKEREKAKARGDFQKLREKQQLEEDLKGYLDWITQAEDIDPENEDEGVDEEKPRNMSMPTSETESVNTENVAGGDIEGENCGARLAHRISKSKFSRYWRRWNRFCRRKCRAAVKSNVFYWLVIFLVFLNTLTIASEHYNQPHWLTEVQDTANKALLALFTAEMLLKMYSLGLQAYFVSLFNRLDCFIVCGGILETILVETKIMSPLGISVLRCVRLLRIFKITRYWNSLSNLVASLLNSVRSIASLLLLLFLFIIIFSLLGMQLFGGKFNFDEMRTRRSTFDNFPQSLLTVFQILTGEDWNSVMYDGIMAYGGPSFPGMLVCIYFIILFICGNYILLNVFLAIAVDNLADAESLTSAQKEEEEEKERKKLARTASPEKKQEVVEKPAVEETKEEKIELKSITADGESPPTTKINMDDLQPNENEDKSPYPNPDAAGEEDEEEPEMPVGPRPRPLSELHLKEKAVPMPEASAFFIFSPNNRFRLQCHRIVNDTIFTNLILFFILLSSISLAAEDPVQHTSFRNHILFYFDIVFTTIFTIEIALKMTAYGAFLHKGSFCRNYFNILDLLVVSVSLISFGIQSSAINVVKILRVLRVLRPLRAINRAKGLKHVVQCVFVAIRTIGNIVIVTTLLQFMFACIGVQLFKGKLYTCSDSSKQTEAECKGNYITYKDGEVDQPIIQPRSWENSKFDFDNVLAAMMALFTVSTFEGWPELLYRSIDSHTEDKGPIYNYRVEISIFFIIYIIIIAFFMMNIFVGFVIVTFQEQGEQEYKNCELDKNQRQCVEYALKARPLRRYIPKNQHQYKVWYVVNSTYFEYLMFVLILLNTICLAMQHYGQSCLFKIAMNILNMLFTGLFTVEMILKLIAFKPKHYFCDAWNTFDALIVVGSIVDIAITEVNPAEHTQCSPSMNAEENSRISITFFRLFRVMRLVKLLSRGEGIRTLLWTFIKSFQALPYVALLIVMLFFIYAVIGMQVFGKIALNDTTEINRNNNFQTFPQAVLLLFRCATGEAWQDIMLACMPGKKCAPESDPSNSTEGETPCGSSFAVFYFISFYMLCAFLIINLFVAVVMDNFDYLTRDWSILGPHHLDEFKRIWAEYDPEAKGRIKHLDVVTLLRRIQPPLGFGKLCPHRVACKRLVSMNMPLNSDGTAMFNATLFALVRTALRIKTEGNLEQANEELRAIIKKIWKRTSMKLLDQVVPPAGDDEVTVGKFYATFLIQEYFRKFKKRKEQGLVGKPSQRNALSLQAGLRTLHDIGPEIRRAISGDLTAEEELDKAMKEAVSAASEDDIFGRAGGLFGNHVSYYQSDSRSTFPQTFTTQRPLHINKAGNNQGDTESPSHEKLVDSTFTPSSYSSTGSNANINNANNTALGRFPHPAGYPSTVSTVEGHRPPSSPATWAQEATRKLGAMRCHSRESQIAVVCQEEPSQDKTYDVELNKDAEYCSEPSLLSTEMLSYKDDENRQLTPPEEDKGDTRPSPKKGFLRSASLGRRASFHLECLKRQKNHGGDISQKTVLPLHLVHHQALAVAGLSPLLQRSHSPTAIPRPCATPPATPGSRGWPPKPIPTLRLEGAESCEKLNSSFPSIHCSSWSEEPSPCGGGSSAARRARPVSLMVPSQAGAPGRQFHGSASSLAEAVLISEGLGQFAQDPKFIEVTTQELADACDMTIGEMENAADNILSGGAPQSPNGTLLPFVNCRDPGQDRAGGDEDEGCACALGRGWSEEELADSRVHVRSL

| SMILES | BP Δ % (narcotized dog; 0.3 mg/kg i.v.) [%] | CBF Δ % (narcotized dog; 0.3 mg/kg i.v.) [%] | HR Δ % (narcotized dog; 0.3 mg/kg i.v.) [%] | dp/dt Δ % (narcotized dog; 0.3 mg/kg i.v.) [%] | IC50 [1] [µM] | IC50 [2] [µM] | BP Δ % (narcotized dog; 1 mg/kg i.v.) [%] | CBF Δ % (narcotized dog; 1 mg/kg i.v.) [%] | HR Δ % (narcotized dog; 1 mg/kg i.v.) [%] | dp/dt Δ % (narcotized dog; 1 mg/kg i.v.) [%] | BP Δ % (narcotized dog; 0.03 mg/kg i.v.) [%] | CBF Δ % (narcotized dog; 0.03 mg/kg i.v.) [%] | HR Δ % (narcotized dog; 0.03 mg/kg i.v.) [%] | dp/dt Δ % (narcotized dog; 0.03 mg/kg i.v.) [%] |
| --- | --- | --- | --- | --- | --- | --- | --- | --- | --- | --- | --- | --- | --- | --- |
| CCCCNC(=O)O[C@]1(CCN(C)CCCCCc2nc3ccccc3n2C)CCc2cc(F)ccc2[C@@H]1C(C)C [C, [1S,2S]-6-fluoro-1,2,3,4-tetrahydro-1-isopropyl-2-[2-[methyl-[5-(1-methyl-2-benzimidazolyl)pentyl]amino]ethyl]-2-naphthyl butylcarbamate] | -16 | 62 | -9 | 15 | 0.017 | 0.21 | – | – | – | – | – | – | – | – |
| COCC(=O)O[C@]1(CCN(C)CCCCCc2nc3ccccc3s2)CCc2cc(F)ccc2[C@@H]1C(C)C [H, [1S,2S]-2-[2-[[5-(2-benzthiazolyl)pentyl]methylamino]ethyl]-6-fluoro-1,2,3,4-tetrahydro-1-isopropyl-2-naphthyl methoxyacetate] | -28 | 146 | -41 | 25 | 0.0024 | 0.028 | – | – | – | – | – | – | – | – |
| CC(C)[C@H]1c2ccc(F)cc2CC[C@]1(O)CCN(C)CCCCCCCc1nc2ccccc2[nH]1 [B, [1S,2S]-2-[2-[[7-(2-benzimidazolyl)heptyl]methylamino]ethyl]-6-fluoro-1,2,3,4-tetrahydro-1-isopropyl-2-naphthalenol] | -6 | 36 | 0 | 8 | 0.05 | 0.63 | – | – | – | – | – | – | – | – |
| COCC(=O)O[C@]1(CC[N+](C)([O-])CCCc2nc3ccccc3[nH]2)CCc2cc(F)ccc2[C@@H]1C(C)C (stereo partly drawn) [E, [1S,2S]-2-[2-[[3-(2-benzimidazolyl)propyl]methyl-N-oxidoamino]ethyl]-6-fluoro-1,2,3,4-tetrahydro-1-isopropyl-2-naphthyl methoxyacetate] | – | – | – | – | 10 | 1 | -8 | 57 | 0 | 10 | – | – | – | – |
| COCC(=O)O[C@]1(CCN(C)CCCc2nc3ccccc3[nH]2)CCc2cc(F)ccc2[C@@H]1C(C)C [A, [1S,2S]-2-[2-[[3-(2-benzimidazolyl)propyl]methylamino]ethyl]-6-fluoro-1,2,3,4-tetrahydro-1-isopropyl-2-naphthyl methoxyacetate] | -22 | 86 | -7 | 25 | 0.047 | 0.13 | – | – | – | – | – | – | – | – |
| CCCCCCCCCCCCn1c(CCCCCCCN(C)CC[C@@]2(OC(=O)COC)CCc3cc(F)ccc3[C@@H]2C(C)C)nc2ccccc21 [F, [1S,2S]-2-[2-[[7-(1-dodecyl-2-benzimidazolyl)heptyl]methylamino]ethyl]-6-fluoro-1,2,3,4-tetrahydro-1-isopropyl-2-naphthyl methoxyacetate] | -3 | 46 | -2 | 4 | 0.028 | 0.034 | – | – | – | – | – | – | – | – |
| COCC(=O)O[C@]1(CCN(C)CCCCCCn2c(=O)[nH]c3ccccc32)CCc2cc(F)ccc2[C@@H]1C(C)C [D, [1S,2S]-6-fluoro-1,2,3,4-tetrahydro-1-isopropyl-2-[2-[methyl-[6-(2-oxo-1-benzimidazolinyl)hexyl]amino]ethyl]-2-naphthyl methoxyacetate] | – | – | – | – | 0.0011 | 0.032 | – | – | – | – | -21 | 22 | -25 | 6 |
| COCC(=O)O[C@]1(CCN(C)CCCc2nc(-c3ccccc3)c(-c3ccccc3)n2C)CCc2cc(F)ccc2[C@@H]1C(C)C [G, [1S,2S]-6-fluoro-1,2,3,4-tetrahydro-1-isopropyl-2-[2-[[3-(1-methyl-4,5-diphenylimidazol-2-yl)propyl]methylamino]ethyl]-2-naphthyl methoxyacetate] | -20 | 96 | -15 | 11 | 0.0018 | 0.15 | – | – | – | – | – | – | – | – |
| COCC(=O)O[C@]1(CCN(C)Cc2ccc(Cc3nc4ccccc4[nH]3)cc2)CCc2cc(F)ccc2[C@@H]1C(C)C [I, [1S,2S]-6-fluoro-1,2,3,4-tetrahydro-1-isopropyl-2-[2-[[4-[(2-benzimidazolyl)methyl]benzyl]methylamino]ethyl]-2-naphthyl methoxyacetate] | -14 | 82 | -9 | 18 | 0.022 | 0.1 | – | – | – | – | – | – | – | – |
